Reference: article PMC11645267, “Novel pharmacologic inhibition of lysine-specific demethylase 1 as a potential therapeutic for glioblastoma” (Cancer Gene Therapy, 2024)

Key:
[1] = molecular target: T1, MAO-A (Homo sapiens, UniProt P21397); assay: Enzyme inhibition assay (in vitro peroxidase assay) against MAO-A
T1 sequence (P21397 1-527): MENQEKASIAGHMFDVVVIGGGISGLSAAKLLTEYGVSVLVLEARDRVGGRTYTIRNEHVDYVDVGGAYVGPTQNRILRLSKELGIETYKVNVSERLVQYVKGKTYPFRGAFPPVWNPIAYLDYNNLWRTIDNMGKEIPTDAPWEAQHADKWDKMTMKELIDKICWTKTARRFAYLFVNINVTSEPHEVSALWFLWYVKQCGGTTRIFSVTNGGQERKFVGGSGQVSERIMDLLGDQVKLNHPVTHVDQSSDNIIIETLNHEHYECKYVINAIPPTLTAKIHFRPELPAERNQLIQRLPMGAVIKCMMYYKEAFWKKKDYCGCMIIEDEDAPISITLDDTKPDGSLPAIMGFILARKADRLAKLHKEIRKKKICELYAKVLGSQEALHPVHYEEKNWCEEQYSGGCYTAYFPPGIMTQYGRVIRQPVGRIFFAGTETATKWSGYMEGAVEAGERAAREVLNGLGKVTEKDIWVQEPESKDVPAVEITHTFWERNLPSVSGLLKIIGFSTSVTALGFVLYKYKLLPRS
Protocol: Enzyme inhibition assays against LSD1, LSD2, MAO-A, and MAO-B were performed as previously described [25]. Technical replicates, n = 3.

[2] = test system: F3; assay: Western blot of global histone modifications; type: cell-based; conditions: F3, 5 μM, 96 h
Protocol: The effects of S2172 on global histone modifications in GSCs were examined using western blot analysis. GSC cells were treated with 5 μM of S2172 since […] of the cells are still viable at this concentration (Fig. 2, Supplementary Fig. S1E). […] Treatment of GSCs with S2172 increased the overall levels of H3K4me2 as well as H3K9me2. However, these changes were not statistically significant (Fig. 2A, B). […]
instructions. For GSC cells, the CellTiter-Glo 3D Viability Assay (Promega, Madison, WI, USA) was used to measure the living cells. All proliferation experiments were repeated […]
The density of bands was quantified using ImageJ software (https://imagej.nih.gov/ij/). […]
When mice were scanned with MRI, mice were anesthetized with isoflurane (3% in air) and placed in MRS 3017 Benchtop MRI Systems (MR Solutions, Guildford, UK). Using MRI images, tumor volumes were obtained by compiling tumor areas from all slices that contained tumors and calculated by ImageJ software (https://imagej.nih.gov/ij/) {Towner, […]
A. Left panel: Western blot analysis of H3K4me1, H3K4me2, H3K4me3, and H3K9me2 after treatment with either DMSO or S2172 5μM for 96 h in normal neural stem cell F3 . […] Right panel: Quantification of signal intensities of the Western blot. […]
C. […] Right panel: Quantification of band signal intensities from the Western blot. […]

## NC1CCC(NC2CC2c2cc(F)cc(F)c2OCc2ccccc2)CC1 (stereo not drawn) [S2172]
[1]
  Ki: > 250 µM
[1]; in vitro peroxidase assay
  Inhibition of MAO-A (in words): not inhibited
[2]
  changes in the levels of H3K4me1, H3K4me2, H3K4me3, and H3K9me2: not significant
